# Where two headings read alike, the source gives them in different places.
# System: TNFα secretion in white blood cells from human buffy coat stimulated with phorbol 12-myristate 13-acetate and ionomycin
# Test: TNFα secretion assay
# Conditions: for inhibition at 0.5 µM / inhibition at 1 µM / inhibition at 2 µM / inhibition at 4 µM / inhibition at 8 µM / inhibition at 0.2 µM / inhibition at 13 µM / inhibition at 26 µM: Homo sapiens; for inhibition at 0.5 µM: read-out: % inhibition of TNFα secretion, Ibudilast 0.5 μM; for inhibition at 1 µM: read-out: % inhibition of TNFα secretion, Ibudilast 1 μM; for inhibition at 2 µM: read-out: % inhibition of TNFα secretion, Ibudilast 2 μM; for inhibition at 4 µM: read-out: % inhibition of TNFα secretion, Ibudilast 4 μM; for inhibition at 8 µM: read-out: % inhibition of TNFα secretion, Ibudilast 8 μM; for inhibition at 0.2 µM: read-out: percent inhibition of TNFα secretion, Loratadine 0.2 μM; for inhibition at 13 µM: read-out: percent inhibition of TNFα secretion, Loratadine 13 μM; for inhibition at 26 µM: read-out: percent inhibition of TNFα secretion, Loratadine 26 μM; for percent inhibition of TNFα secretion: Bromodiphenhydramine HCl μM: 0/0.21/0.43/0.85/1.7/3.4/6.8/14/27
# [1] = Bromodiphenhydramine HCl μM r5-r13: 0,0.21,0.43,0.85,1.7,3.4,6.8,14,27
# [2] = Cyproheptadine HCl μM r5-r12: 0,0.24,0.48,0.96,1.9,3.9,7.7,15
# [3] = Loratadine μM r5-r13: 0,0.2,0.41,0.82,1.6,3.3,6.5,13,26
# [4] = Thiethylperazine Maleate μM r5-r13: 0,0.2,0.39,0.78,1.6,3.1,6.3,13,25
# [5] = Desipramine HCl: 0/0.25/0.5/1/2/4/8/16/32 μM
# [6] = Fluoxetine HCl μM: 0/0.23/0.45/0.9/1.8/3.6/7.2/14/29
# [7] = Paroxetine HCl: 0/0.21/0.42/0.83/1.7/3.3/6.7/13/27 μM
# Method: Drugs were added to the indicated concentration. […] The plate was then washed again with 0.1% Tween 20/PBS. An HRP-luminescent substrate was added to each well, and the light intensity of each well was measured using a plate luminometer.
compound,measurement,setting,value
CC(C)C(=O)c1c(C(C)C)nn2ccccc12 [Ibudilast],inhibition at 0.5 µM,[1],19%
same,inhibition at 0.5 µM,[2],20%
same,inhibition at 0.5 µM,[3],21%
same,inhibition at 0.5 µM,[4],23%
same,inhibition at 1 µM,[1],24%
same,inhibition at 1 µM,[2],23%
same,inhibition at 1 µM,[3],32%
same,inhibition at 1 µM,[4],27%
same,inhibition at 2 µM,[1],36%
same,inhibition at 2 µM,[2],32%
same,inhibition at 2 µM,[3],35%
same,inhibition at 2 µM,[4],38%
same,inhibition at 4 µM,[1],43%
same,inhibition at 4 µM,[2],36%
same,inhibition at 4 µM,[3],39%
same,inhibition at 4 µM,[4],42%
same,inhibition at 8 µM,[1],41%
same,inhibition at 8 µM,[2],41%
same,inhibition at 8 µM,[3],43%
same,inhibition at 8 µM,[4],48%
"CCOC(=O)N1CCC(=C2c3ccc(Cl)cc3CCc3cccnc32)CC1 [Loratadine, loratadine]",inhibition at 0.2 µM,[5],-1.95%
same,inhibition at 0.2 µM,[6],3.68%
same,inhibition at 0.2 µM,[7],-1.38%
same,inhibition at 13 µM,[5],31.7%
same,inhibition at 13 µM,[6],42.9%
same,inhibition at 13 µM,[7],38.3%
same,inhibition at 26 µM,[5],41.5%
same,inhibition at 26 µM,[6],56.6%
same,inhibition at 26 µM,[7],43.4%
CNCCC=C1c2ccccc2CCc2ccccc21.Cl [Nortryptyline HCl],percent inhibition of TNFα secretion,Nortryptyline HCl 1 μM,1.7
same,percent inhibition of TNFα secretion,Nortryptyline HCl 17 μM,80
same,percent inhibition of TNFα secretion,Nortryptyline HCl 33 μM,92

# — patent US20050192261A1, “Methods and reagents for the treatment of immunoinflammatory disorders” (priority 2003, published 2005)
